Row | melting point | SMILES
1 | 138 to 141 °C | Cn1nc(-c2ccc(NN=C(CCC(=O)O)c3ccc(O)cc3O)cc2)ccc1=O
2 | 145 to 146 °C | CCCn1c(=O)c2[nH]c(C(CO)Cc3ccccc3)nc2n(CCC)c1=O (stereo unspecified)
3 | 148 to 149 °C | Cc1ccnc2c(Oc3ccc([N+](=O)[O-])cc3)cccc12
4 | 145 to 147 °C | Cc1oc(-c2ccccc2)nc1COc1ccc(CN(O)C(N)=O)c(Cl)c1
5 | 179 to 181 °C | Cc1ccc(CNC(=O)c2ccc3n2Cc2ccccc2N(C(=O)c2ccc(-c4ccccc4C)c(C)c2)C3)cc1
6 | 159 to 160 °C | Oc1ccc2ccc(OCCN3CCC(Cc4ccccc4)CC3)cc2c1
7 | 239 to 240 °C | Cc1ccc(CN2CCC(NC(=O)NC(=O)c3ccccc3)CC2)cc1C
8 | 123 °C | CCC(CC(O)C(CC1CCCCC1)NC(=O)C(Cc1c[nH]cn1)NC(=O)C(Cc1ccccc1)C(=O)NO)C(C)C (stereo unspecified)
9 | 132 to 133 °C | COc1ccc([C@@H]2SC(c3ccccc3)=C(C)N(CCN(C)C)C(=O)[C@H]2O)cc1 (relative stereo)
10 | 77 to 78 °C | CCOC(=O)C(Oc1cccc2c1ccn2C(=O)OCc1ccccc1)C(=O)OCC
11 | 176 °C | O=C(O)C(O)CSc1ccc(-c2ccccc2)cc1 (stereo unspecified)
12 | 194 to 195 °C | O=C1Nc2ccccc2N(C(=O)CN2CCCCC2CN2CCOCC2)c2ccccc21 (stereo unspecified)
13 | 106 to 107 °C | CC(=S)OC1CCN(C(=O)OCc2ccc([N+](=O)[O-])cc2)CC1
14 | 122 to 123 °C | COc1cc(C)c(C(=O)c2ccc(OCc3nc(-c4ccccc4)oc3C)cc2)c(O[C@H](C)C(=O)O)c1
15 | 153 to 155 °C | Cc1ccc(S(=O)(=O)Nc2nc(-c3cccc(-c4ccccc4)c3)cs2)cc1
16 | 170 °C | O=C(Nc1cccc(O)c1)O[C@@H]1CN=C(c2ccccc2)O[C@H]1c1ccccc1 (racemic)
17 | 239 to 241 °C | CN1c2ccc(-c3ccccc3)cc2Sc2cc(-c3ccccc3)ccc21
18 | 166 to 167 °C | O=C(Nc1ccc(CCc2ccc(O)c(O)c2)cc1)C(=O)C1=C(O)c2ccccc2SC1
19 | 132 to 134 °C | CN1CCC2(CC1)c1ccccc1Cc1ccccc12

Further lines, the compound ahead of its results:

Row | SMILES | melting point
20 | CC(C)(C)OC(=O)N1CCN(CC(O)COc2ccc(CC#N)cc2)CC1 (stereo unspecified) | 98 to 100 °C
21 | O=C1NCCc2c(-c3cccs3)[nH]c3cccc1c23 | 220 to 222 °C
22 | CC(NC(Nc1cc(F)cc(C(F)(F)F)c1)=C(C#N)S(C)(=O)=O)C(C)(C)C (stereo unspecified) | 183 to 185 °C
23 | O=C(O)c1cc(C(=O)O)c(C(O)=NCO)cc1C(O)=NCO | 300 °C
24 | C=C=CC1(OC(C)=O)CCC2C3CCc4cc(OC)ccc4C3CCC21C (stereo unspecified) | 89 to 90 °C
25 | CNc1cc2c(Nc3ccc(Sc4nccn4C)c(Cl)c3)c(C#N)cnc2cc1N1CCC(N2CCCC2)CC1 | 242 to 250 °C
26 | O=C1NC(=O)c2c1cc1ccc3c(c1c2-c1ccc2c(c1)OCO2)OCC3 | > 320 °C
27 | CCCCc1nc2c(N)nc3ccccc3c2n1CCCC1(C)OCCO1 | 169 to 172 °C
28 | CC(Cl)(Cl)C1(O)NC(=O)C(=O)N1 | 220 °C
29 | CS(=O)(=O)c1ccc(C(=O)C2C(=O)CCC(S(C)(=O)=O)C2=O)c(Cl)c1 (stereo unspecified) | 175 to 180 °C
30 | CCN1C(=O)N(SC(Cl)(Cl)Cl)C(=O)C1(C)C | 141 to 142 °C
31 | CCC(OC(C)=O)c1ccc(Cl)c2nc3n(c12)CCCN3c1ccc(OC)cc1Cl (stereo unspecified) | 178 to 180 °C
32 | O=C(O)c1cccc2[nH]nnc12 | 250 to 252 °C
33 | COc1ccc(Cn2c(C)c(C=O)c3cnnc(OCc4ccccc4)c32)cc1 | 139 to 145 °C
34 | CCCCCCCC(=O)NCCCCO | 76 to 77 °C
35 | CC(C)NC1=NS(=O)(=O)c2sc(Br)cc2N1 | 279 °C

Row | SMILES | melting point
36 | Cc1ccc(OC(=O)Cl)cc1 | 60 to 61.5 °C
37 | CC1(C)CC(=O)C(C(=O)Nc2ccc(C(F)(F)F)cc2)C(=O)O1 (stereo unspecified) | 176 °C
38 | CCOC(=O)c1cn(-c2nc(NC(C)(C)C)c(F)cc2F)c2c(F)c(F)c(F)cc2c1=O | 174 to 178 °C
39 | O=Cc1cncc2ncc(-c3ccccc3)cc12 | 148 °C
40 | O=C(O)CCc1c(Br)cccc1C(F)(F)F | 122 to 126 °C
41 | O=C(O)CCCCOc1ccc2nc3[nH]c(=O)[nH]c3cc2c1 | 317 to 318 °C
42 | CCCOC(=O)c1ccc(C#CC2(O)CN3CCC2CC3)cc1O (stereo unspecified) | 173 to 175 °C
43 | CCS(=O)(=O)/C=C/c1ccc2[nH]cc(C3CCN(C)CC3)c2c1 | 98 to 102 °C
44 | CCOc1nc(N)c2ncn(C3CCCCC3)c2n1 | 134 to 136 °C
45 | COc1cc(Nc2c(C#N)cnc3cc(-c4csc(CN5CCN(C)CC5)c4)sc23)c(Cl)cc1Cl | 224 to 226 °C
46 | CCC/C(=C\C=O)c1ccc2c(c1)C(CC)(CC)OC(=O)N2 | 173 to 179 °C
47 | COc1ccc(C2C[N+]([O-])=C3CCCCC32)cc1OC (stereo unspecified) | 135 to 141 °C
48 | C[C@H]1C(=O)C[C@@H]2C[C@H]1OO[C@]2(C)/C=C\c1cc(C(F)(F)F)nc2cc(C(F)(F)F)ccc12 | 160 °C
49 | COc1ccc2c(c1)C(=O)N(c1ccc3ncsc3c1)C2 | 204 to 207 °C
50 | CC(C#N)=C1CCN(c2ccc(N3C[C@@H](CNNCC(=O)O)OC3=O)cc2F)CC1 | 141 to 142 °C
51 | COc1ccc(NC(=O)CN2CC(C)N(C(c3ccc(F)cc3)c3ccc(F)cc3)CC2C)cc1 (stereo unspecified) | 131 °C

From a melting point compilation (Tetko et al.; mined from patent text by program, amines drawn as free bases though some values may be those of a salt)
